The target of one data set is Gamma-secretase. Put plainly: Inhibition of gamma secretase-mediated beta-APP cleavage in human H4 cells assessed by measuring Abeta40 production by ELISA. The data set is classed as cell-based. A general note: ELISA stands for enzyme-linked immunosorbent assay.
Data set [1] can be described thus: Drug level in Tg2576 betaAPP swedish transgenic mouse brain at 500 umol/kg, po after 3 hrs. Conditions: read-out: Drug uptake. The data set is classed as ADME, organism-based.
Data set [2] is described as follows: Drug level in Tg2576 betaAPP swedish transgenic mouse brain at 500 umol/kg, sc twice a day for 5 days. Conditions: read-out: Drug uptake. The data set is classed as ADME, organism-based.
Data set [3] is described as follows: Protein binding in mouse plasma at 10 ug/mL. The data set is classed as ADME, cell-free. Conditions: read-out: PPB.
Data set [4] is described as follows: Protein binding in rat plasma at 10 ug/mL. The format is ADME, cell-free. To be noted: read-out: PPB.
Data set [5] in a line: Protein binding in human plasma at 10 ug/mL. The format is ADME, cell-free. To be noted: read-out: PPB.
Data set [6] is described as follows: Drug level in Tg2576 betaAPP swedish transgenic mouse plasma at 500 umol/kg, po after 3 hrs. The data set is classed as ADME, organism-based.
The nature of data set [7]: Drug level in Tg2576 betaAPP swedish transgenic mouse plasma at 500 umol/kg, sc twice a day for 5 days. The data set is classed as ADME, organism-based.
Data set [8] relates to Mus musculus. The data set can be described thus: Decrease in amyloid beta level in Tg2576 betaAPP swedish transgenic mouse brain at 500 umol/kg, po after 3 hrs. The format is functional. The arrangement: scale not given: the % may be the effect or the level left.
Data set [9] relates to Mus musculus. Put plainly: Decrease in amyloid beta level in Tg2576 betaAPP swedish transgenic mouse brain at 500 umol/kg, sc twice a day for 5 days. The format is functional. The arrangement: scale not given: the % may be the effect or the level left.

For orientation: IC50 means the concentration needed to halve the response being measured. Compound `CCN(c1cc(Cl)ccc1CO)S(=O)(=O)c1ccc(Cl)cc1` came in with an IC50 on Gamma-secretase of 0.013 µM.
The same measure, in the same setting: then `CC(CCF)N(c1cc(Cl)ccc1CO)S(=O)(=O)c1ccc(Cl)cc1` (centres undefined), with 0.025 µM.
Same read-out and setting: next, `CCCC(C)N(c1cc(Cl)ccc1CO)S(=O)(=O)c1ccc(F)cc1` (centres undefined): 0.066 µM.
Same read-out and setting: then `CCCC(C)N(c1cc(Cl)ccc1CO)S(=O)(=O)c1ccc(Cl)cc1` (centres undefined), with 0.019 µM; and `CCCC(C)N(c1cc(Cl)ccc1CO)S(=O)(=O)c1ccc(C(F)(F)F)cc1` (centres undefined), with 0.072 µM; and `CCCC(C)N(c1cc(Cl)ccc1CO)S(=O)(=O)c1ccc(C#N)cc1` (centres undefined), with 0.18 µM.
`CC(C1CC1)N(c1cc(Cl)ccc1CO)S(=O)(=O)c1ccc(Cl)cc1` (centres undefined): it took 0.049 µM to reach half-maximal inhibition against Gamma-secretase (IC50).
Same read-out and setting: next, `CCCC(C)N(c1cc(Cl)ccc1CO)S(=O)(=O)c1ccc(Cl)c(Cl)c1` (centres undefined): 0.24 µM.
For `CCCC(C)N(c1cc(Cl)ccc1CO)S(=O)(=O)c1ccc(Cl)cc1Cl` (centres undefined), it took 0.56 µM to reach half-maximal inhibition against Gamma-secretase (IC50).
For `CC(c1ccc(Cl)cc1)N(c1cc(Cl)ccc1CO)S(=O)(=O)c1ccc(Cl)cc1` (centres undefined), half-maximal inhibition on Gamma-secretase (IC50) was put at 0.022 µM.
On the same count and under the same terms, then `CCCN(c1cc(Cl)ccc1CO)S(=O)(=O)c1ccc(C)cc1`, with 0.75 µM.
On Gamma-secretase, `CCCCN(c1cc(Cl)ccc1CO)S(=O)(=O)c1ccc(C)cc1` showed an IC50 of 1.3 µM.
The same measure, in the same setting: next, `Cc1ccc(S(=O)(=O)N(CC(C)C)c2cc(Cl)ccc2CO)cc1`: 0.7 µM; `Cc1ccc(S(=O)(=O)N(CCC(C)(C)C)c2cc(Cl)ccc2CO)cc1`: 2 µM.
The same measure, in the same setting: then `CCCC(C)N(c1cc(Cl)ccc1CO)S(=O)(=O)c1ccc(C)cc1` (centres undefined), with 0.04 µM.
On Gamma-secretase, `Cc1ccc(S(=O)(=O)N(c2cc(Cl)ccc2CO)C(C)CC(C)(C)C)cc1` (centres undefined) returned an IC50 of 0.35 µM.
For the compound `Cc1ccc(S(=O)(=O)N(c2cc(Cl)ccc2CO)C(C)C2CCCCC2)cc1` (centres undefined), on Gamma-secretase, the IC50 came out at 0.19 µM.
Regarding `CCC(CC)N(c1cc(Cl)ccc1CO)S(=O)(=O)c1ccc(C)cc1`, on Gamma-secretase, the IC50 came out at 1 µM.
The same measure, in the same setting: next, `CCCC(C)N(c1cc(Cl)ccc1CO)S(=O)(=O)c1ccccc1` (centres undefined): 1.2 µM; `CCCC(C)N(c1cc(Cl)ccc1CO)S(=O)(=O)c1ccc(C(C)C)cc1` (centres undefined): 0.72 µM.
On the same count and under the same terms, next, `CC(Cc1ccccc1)N(c1cc(Cl)ccc1CO)S(=O)(=O)c1ccc(Cl)cc1` (centres undefined): 0.041 µM.
`CC(C1CCC1)N(c1cc(Cl)ccc1CO)S(=O)(=O)c1ccc(Cl)cc1` (centres undefined): the IC50 against Gamma-secretase was 0.012 µM.
On the same count and under the same terms, next, `CC(C1CCCC1)N(c1cc(Cl)ccc1CO)S(=O)(=O)c1ccc(Cl)cc1` (centres undefined): 0.014 µM.
The same measure, in the same setting: next, `C/C=C/C(C)N(c1cc(Cl)ccc1CO)S(=O)(=O)c1ccc(Cl)cc1` (centres undefined): 0.14 µM.
Same read-out and setting: next, `CC[C@H](C)N(c1cc(Cl)ccc1CO)S(=O)(=O)c1ccc(C)cc1`: 1.3 µM; `CC[C@@H](C)N(c1cc(Cl)ccc1CO)S(=O)(=O)c1ccc(C)cc1`: 0.1 µM; `CCC[C@H](C)N(c1cc(Cl)ccc1CO)S(=O)(=O)c1ccc(C)cc1`: 3.7 µM.
`CCC[C@@H](C)N(c1cc(Cl)ccc1CO)S(=O)(=O)c1ccc(Cl)cc1`: the concentration at 3 h was 5.2 µM in data set [1] and 1.6 µM in data set [6]. The concentration at 120 h is 14 µM in data set [2] and 21 µM in [7]. Further, the fraction unbound at 10 ug/mL in data set [3], in [4] and in data set [5] was below 0.01 throughout. Further, the results for the Activity in the data set on Mus musculus [8] and in the data set on Mus musculus [9] were 25% and 38%, respectively.
In the case of `C[C@H](CCc1ccccc1)N(c1cc(Cl)ccc1CO)S(=O)(=O)c1ccc(Cl)cc1`, the IC50 at Gamma-secretase was 0.004 µM.
Still for that read-out and setting: then `CCCC[C@@H](C)N(c1cc(Cl)ccc1CO)S(=O)(=O)c1ccc(Cl)cc1`, with 0.005 µM; and `CCC[C@@H](C)N(c1cc(Cl)ccc1CO)S(=O)(=O)c1ccc(C)cc1`, with 0.024 µM; and `C=CC[C@@H](C)N(c1cc(Cl)ccc1CO)S(=O)(=O)c1ccc(Cl)cc1`, with 0.014 µM.
Same read-out and setting: then `CCCC(C)N(c1cc(Cl)ccc1CO)S(=O)(=O)c1c(Cl)cc(Cl)cc1Cl` (centres undefined), with above 25 µM; and `CC(c1ccc2ccccc2c1)N(c1cc(Cl)ccc1CO)S(=O)(=O)c1ccc(Cl)cc1` (centres undefined), with 0.1 µM; and `CC(C1CCCCC1)N(c1cc(Cl)ccc1CO)S(=O)(=O)c1ccc(Cl)cc1` (centres undefined), with 0.033 µM.
As for `Cc1ccc(S(=O)(=O)N(CC2CCCCC2)c2cc(Cl)ccc2CO)cc1`, on Gamma-secretase, half-maximal inhibition (IC50) required 1 µM.
In the case of `CCCCN(c1cc(Cl)ccc1CO)S(=O)(=O)c1ccc(Cl)cc1`, the IC50 against Gamma-secretase came to 0.14 µM.
On Gamma-secretase, `CCCC(C)N(c1cc(Cl)ccc1CO)S(=O)(=O)c1ccc(OC)cc1` (centres undefined) returned an IC50 of 1.3 µM.
As to `CC(C)CC(C)N(c1cc(Cl)ccc1CO)S(=O)(=O)c1ccc(Cl)cc1` (centres undefined), the IC50 on Gamma-secretase is 0.023 µM.
Same read-out and setting: next, `CC(CCCF)N(c1cc(Cl)ccc1CO)S(=O)(=O)c1ccc(Cl)cc1` (centres undefined): 0.007 µM.
The same measure, in the same setting: then `CCN(c1cc(Cl)ccc1CO)S(=O)(=O)c1ccc(C)cc1`, with 1.1 µM; and `C=C(C)CN(c1cc(Cl)ccc1CO)S(=O)(=O)c1ccc(C)cc1`, with 0.4 µM; and `CCCC(C)N(c1cc(Cl)ccc1CO)S(=O)(=O)c1ccc(CC)cc1` (centres undefined), with 0.36 µM.
On the same count and under the same terms, next, `CCCC(C)N(c1cc(Cl)ccc1CO)S(=O)(=O)c1ccc(Br)cc1` (centres undefined): 0.056 µM.
With `Cc1ccc(S(=O)(=O)N(CCCC(C)C)c2cc(Cl)ccc2CO)cc1`, the IC50 against Gamma-secretase was 0.92 µM.
`CCCC(C)N(c1cc(Cl)ccc1CO)S(=O)(=O)c1cccc(C)c1` (centres undefined): half-maximal inhibition at Gamma-secretase (IC50) required 1.2 µM.

For the origin of these results see ChEMBL document CHEMBL1149579, “N-(5-chloro-2-(hydroxymethyl)-N-alkyl-arylsulfonamides as gamma-secretase inhibitors” (Bioorg Med Chem Lett, 2007).
